Source: paper PMC6017107 (Molecules : A Journal of Synthetic Chemistry and Natural …, 2018)
“Also recorded” adds a separate entry of the source. Where two headings read alike, the source gives them in different places.

Experiments:
Caco-2 cells = details: ref [6]; cited from earlier work
[1] = Plasma pharmacokinetics of phytochemicals after intraperitoneal injection
Procedure: (§1) Male ICR mice (age: 5–6 weeks old; body weight: 30 ± 2 g) were purchased from Samtako Co. (Osan, Gyeonggi-do, Korea), housed in plastic cages and given free access to a standard animal diet (Daejong, Seoul, Korea) and water. The environment was maintained under the following conditions: temperature, 23 ± 1 °C; 12-h light-dark cycle; and relative humidity, 50% ± 10%. The animals were acclimatized for a minimum period of 1 week and fasted overnight prior to experimentation.
(§2) The mice were randomly divided into four groups. Each group was pretreated with either control vehicle (a mixture of DMSO:PEG 400:distilled water; 5:45:50, v/v), piperine (10 mg/kg), capsaicin (5 mg/kg), or [6]-gingerol (5 mg/kg). The treatment solutions of piperine, capsaicin and [6]-gingerol were prepared by the dissolution of each compound in the DMSO:PEG 400:distilled water mixture at concentrations of 2, 1 and 1 mg/mL, respectively. The treatment solutions were administered intraperitoneally twice with τ = 60 min for control vehicle and piperine and τ = 30 min for capsaicin and [6]-gingerol. […] The physiological conditions of the animals were carefully monitored during the study.
(§3) The volume of injected dosing vehicle was 5 mL/kg. […] Plasma was harvested by centrifugation at 16,000× g for 10 min and immediately stored at −20 °C until analysis. […] All excised tissues were accurately weighed and homogenized (Tissue Tearor, Biospec Products Inc., Bartlesville, OK, USA) with appropriate volumes of isotonic saline. The obtained tissue homogenates were stored at −20 °C until analysis.
(§4) Sample analyses were conducted on an Agilent 6430 triple quadrupole mass spectrometer coupled with an Agilent 1200 HPLC (Agilent, Santa Clara, CA, USA). […] Chromatographic separation was performed using a binary gradient mobile phase composed of acetonitrile (A) and 0.05% formic acid (B) and programmed as follows: initial conditions, 20% A (0.3 mL/min) for 0.1 min and 80% A for 3 min; increased to 90% A in 0.1 min and maintained for 1 min; returned to the initial composition; followed by a 3.2-min equilibration step (1.5 min for 0.3 mL/min and then 1.7 min for 0.5 mL/min). The ESI source was operated in positive mode with curtain and nebulizer gas set at 10 and 20 psi, respectively. The capillary voltage and gas temperature were 4000 V and 300 °C, respectively.
(§5) The IS working solution (20 μL of 100 ng/mL IS solution for plasma and 50 μL of 100 ng/mL IS solution for tissue samples) and acetonitrile (50 μL for plasma and 80 μL for tissue samples) were added to 20 μL of plasma and 50 μL of tissue samples and mixed on a vortex mixer for 1 min. The mixture was then centrifuged at 16,000× g (Biofuge Fresco, Kendro, Osterode, Germany) for 10 min. For tissue samples, 100 μL of the supernatant was re-precipitated with an equal volume of acetonitrile and centrifuged at 16,000× g for 10 min. Finally, 50 μL distilled water was added to 50 μL of each supernatant, followed by mixing and injection of 10 μL of the sample mixture onto the LC-MS/MS. Data acquisition was performed with MassHunter Quantitative Analysis (Agilent, Santa Clara, CA, USA).
(§6) The pharmacokinetic parameters were determined by non-compartmental analysis using Phoenix® WinNonlin® 6.4 (Certara, L.P., Princeton, NJ, USA). As the procedure entailed destructive sampling, the non-compartmental analysis was performed by using the average plasma concentration vs. time data. These parameters included terminal half-life (t1/2), area under the plasma concentration-time curve from time zero to infinity (AUCinf), apparent volume of distribution during the terminal phase (Vz), the volume of distribution at steady state (Vss) and systemic clearance (CL).

P-gp [2] = details: ref [7], cited from earlier work; for Effects on the P-gp mediated transport in vitro: KB-C2; for Increase of accumulation of rhodamine 123: KB-C2 cells
KB-C2 cells = details: substrate Vinblastine, ref [7]; cited from earlier work
in vivo = details: for Increase of the Kp of doxorubicin in the kidney by pretreatment, comparing with control: 2 h after administration; for Increase of the Kp of doxorubicin in the liver by pretreatment: mice (matches 2 h values of Table 4)
Procedure: as §1, §2, §3, §4, §5, §6

mice = details: cited from earlier work
P-gp [3] = details: cited from earlier work; for IC50: Caco-2 cells
[4] = Tissue distribution of phytochemicals after intraperitoneal administration; details: mouse, in vivo, ip
Procedure: as §1
The mice were randomly divided into four groups. Each group was pretreated with either control vehicle (a mixture of DMSO:PEG 400:distilled water; 5:45:50, v/v), piperine (10 mg/kg), capsaicin (5 mg/kg), or [6]-gingerol (5 mg/kg). […] The physiological conditions of the animals were carefully monitored during the study. […]
The IS working solution (20 μL of 100 ng/mL IS solution for plasma and 50 μL of 100 ng/mL IS solution for tissue samples) and acetonitrile (50 μL for plasma and 80 μL for tissue samples) were added to 20 μL of plasma and 50 μL of tissue samples and mixed on a vortex mixer for 1 min. […] Data acquisition was performed with MassHunter Quantitative Analysis (Agilent, Santa Clara, CA, USA).
The pharmacokinetic parameters were determined by non-compartmental analysis using Phoenix® WinNonlin® 6.4 (Certara, L.P., Princeton, NJ, USA). […]

[5] = cited from earlier work
[6] = Plasma pharmacokinetics of doxorubicin i.v. in mice pretreated with phytochemical P-gp modulators; details: male, ICR, mouse, in vivo, iv, 1 mg/kg, i.v. 1 mg/kg; for C0: C0 of doxorubicin; for clearance: CL of doxorubicin; for half-life: t1/2 of doxorubicin
Procedure: as §1, §2, §3, §4, §5, §6

[7] = system: MCF-7/DOX, A-549/DDP cells; details: ref [30], cited from earlier work
ABC transporter genes = details: MCF-7/DOX, A-549/DDP; ref [30]; cited from earlier work
P-gp, MRP1 and BCRP = details: ref [30], cited from earlier work
[8] = male, ICR, mouse, in vivo, ip, 5 mg/kg
[9] = A-549/DDP, substrate Doxorubicin
[10] = male, ICR, mouse, in vivo, ip, 10 mg/kg

COc1cc(CNC(=O)CCCC/C=C/C(C)C)ccc1O [Capsaicin]
Cytotoxicity (Caco-2 cells): no resulting cytotoxicity
Detection in plasma ([1]; i.p. 5 mg/kg, mice, plasma): not detected 2–4 h after administration
AUC(0-inf) [1, 8]: 66.8 ng·h/mL
CL/F [1, 8]: 1250 mL/min/kg
Cmax [1, 8]: 119 ng/mL
Tmax [1, 8]: 0.17 h
Vd/F [1, 8]: 35.7 L/kg
half-life [1, 8]: 0.33 h
Effects on the P-gp mediated transport in vitro (P-gp [2]; substrate Daunorubicin): Increased cellular accumulation
Effects on the P-gp mediated transport in vitro (P-gp [2]; substrate Rhodamine 123): Inhibited efflux transport
Increase of accumulation of rhodamine 123 (P-gp [2]; 50 μmol/L capsaicin): 4 fold
Effects on the P-gp mediated transport in vitro (KB-C2 cells): Increased vinblastine cytotoxicity by inhibition of efflux transporter
Increase of the Kp of doxorubicin in the brain by pretreatment (in vivo; brain, 2 h, mice): 3.33 fold
Increase of the Kp of doxorubicin in the kidney by pretreatment, comparing with control (in vivo; mice): 1.95 fold
Increase of the Kp of doxorubicin in the liver by pretreatment (in vivo): 6.21 fold
LD50 (mice; i.p., mice, ref [57],[58]): 7.6 mg/kg
Effects on the P-gp mediated transport in vitro (P-gp [3]; Caco-2, substrate [3H] Digoxin, ref [6]): inhibited digoxin efflux mediated by P-gp; also recorded: Inhibited P-gp mediated efflux transport

CCCCC[C@H](O)CC(=O)CCc1ccc(O)c(OC)c1 [[6]-Gingerol]
AUC(0-inf) [1, 8]: 66.3 ng·h/mL
CL/F [1, 8]: 1260 mL/min/kg
Cmax [1, 8]: 153 ng/mL
Detection in plasma [1, 8]: not detected 2–4 h after administration
Tmax [1, 8]: 0.17 h
Vd/F [1, 8]: 148 L/kg
half-life [1, 8]: 1.36 h
Effects on the P-gp mediated transport in vitro (P-gp [2]; substrate Daunorubicin): Increased cellular accumulation
Effects on the P-gp mediated transport in vitro (P-gp [2]; substrate Rhodamine 123): Inhibited efflux transport
Increase of accumulation of rhodamine 123 (P-gp [2]; in the presence of [6]-gingerol): 2.24 fold
Effects on the P-gp mediated transport in vitro (KB-C2 cells): Increased vinblastine cytotoxicity by inhibition of efflux transporter
Detection in brain, heart and testis [4]: not detected
LD50 (mice; mouse, in vivo, ip): 58.1 mg/kg
Effects on the P-gp mediated transport in vitro (P-gp [3]; Caco-2, L-MDR1, substrate [3H] Digoxin, ref [8]): Inhibited P-gp mediated efflux transport
Effects on the P-gp mediated transport in vitro (P-gp [3]; Caco-2, L-MDR1, substrate [3H] Digoxin, ref [8], listed as [6]-gingerol): inhibited P-gp-mediated digoxin transport

COc1cccc2c1C(=O)c1c(O)c3c(c(O)c1C2=O)C[C@@](O)(C(=O)CO)C[C@@H]3O[C@H]1C[C@H](N)[C@H](O)[C@H](C)O1 [Doxorubicin]
Kp (in vivo; male, ICR, mouse, in vivo, iv, 1 mg/kg, Doxorubicin Kp values): > 35.4
Injected doxorubicin excreted in bile ([5]; bile duct-cannulated rats, ref [45]): 33–35%
Injected doxorubicin eliminated via urine ([5]; bladder-cannulated rats, ref [45]): 4–8%
Initial dose appearing in the bile as unchanged doxorubicin ([5]; rats, within 3 h, ref [43]): approximately 30%
C0 ([6]; pretreatment Capsaicin): 4430 ng/mL
C0 ([6]; pretreatment Control): 3980 ng/mL
C0 ([6]; pretreatment Piperine): 3400 ng/mL
C0 ([6]; pretreatment [6]-Gingerol): 4040 ng/mL
clearance ([6]; pretreatment Capsaicin): 25.2 mL/min/kg
clearance ([6]; pretreatment Control): 31 mL/min/kg
clearance ([6]; pretreatment Piperine): 25.6 mL/min/kg
clearance ([6]; pretreatment [6]-Gingerol): 28.8 mL/min/kg
half-life ([6]; pretreatment Capsaicin): 13.3 h
half-life ([6]; pretreatment Control): 17.4 h
half-life ([6]; pretreatment Piperine): 15.7 h
half-life ([6]; pretreatment [6]-Gingerol): 15.5 h

O=C(/C=C/C=C/c1ccc2c(c1)OCO2)N1CCCCC1 [Piperine]
Effects on the P-gp mediated transport in vitro [7, 9]: Increased cytotoxicity by reversing transporter mediated doxorubicin and mitoxantrone resistance
Effects on the P-gp mediated transport in vitro ([7]; substrate Mitoxantrone): Increased cytotoxicity by reversing transporter mediated doxorubicin and mitoxantrone resistance
AUC(0-inf) [1, 10]: 9960 ng·h/mL
CL/F [1, 10]: 16.7 mL/min/kg
Cmax [1, 10]: 5050 ng/mL
Tmax [1, 10]: 0.75 h
Vd/F [1, 10]: 9.12 L/kg
half-life [1, 10]: 6.3 h
Effects on the P-gp mediated transport in vitro (ABC transporter genes): Inhibited transcription of the corresponding ABC transporter genes
Increase of the Kp of doxorubicin in the kidney by pretreatment, comparing with control (in vivo; mice): 2.23 fold
Increase of the Kp of doxorubicin in the liver by pretreatment (in vivo): 5.44 fold
Effects on the P-gp mediated transport in vitro (P-gp, MRP1 and BCRP; [9]): Inhibited efflux activity of P-gp, MRP1 and BCRP
Effects on the P-gp mediated transport in vitro (P-gp, MRP1 and BCRP; MCF-7/DOX, substrates Rhodamine 123, Mitoxantrone): Inhibited efflux activity of P-gp, MRP1 and BCRP
Kp at 2 h ([4]; male, ICR, 10 mg/kg): 1.69 ± 0.28
LD50 (mice; mouse, in vivo, ip): 60 mg/kg
Effects on the P-gp mediated transport in vitro (P-gp [3]; Caco-2, L-MDR1, substrate [3H] Digoxin, ref [5]): Inhibited P-gp mediated efflux transport
Effects on the P-gp mediated transport in vitro (P-gp [3]; Caco-2, substrates Digoxin, Cyclosporin A, ref [4]): Inhibited P-gp mediated efflux transport
IC50 (P-gp [3]; cyclosporine A, ref [4], read-out: IC50, inhibition of transport of P-gp substrate cyclosporine A): 74.1 µM
IC50 (P-gp [3]; digoxin, ref [4], read-out: IC50, inhibition of transport of P-gp substrate digoxin): 15.5 µM
